Reference: ChEMBL document CHEMBL1140120, “Discovery of biphenyl piperazines as novel and long acting muscarinic acetylcholine receptor antagonists” (J Med Chem, 2008)
≈ marks a conversion by molar mass, not a printed value. Calls of active or inactive are those of the source. The rule behind the calls is not given here.

Experiments:
[1] = target: Muscarinic acetylcholine receptors; M2 & M3 (Homo sapiens) (UniProt P20309+P08172); experiment: Selectivity for human cloned muscarinic M3 receptor over human cloned muscarinic M2 receptor
[2] = target: Muscarinic acetylcholine receptor M1 and M3 (Homo sapiens) (UniProt P20309+P11229); experiment: Selectivity for human cloned muscarinic M3 receptor over human cloned muscarinic M1 receptor
[3] = target: T1, Muscarinic acetylcholine receptor M3 (Homo sapiens, UniProt P20309); experiment: Antagonist activity at cloned muscarinic M3 receptor expressed in CHO cells assessed as acetylcholine-induced change in cytosolic calcium concentration by FLIPR assay; type: functional, cell-based; settings: read-out: pA2 (converted)
Target sequence in this assay (P20309 whole entry): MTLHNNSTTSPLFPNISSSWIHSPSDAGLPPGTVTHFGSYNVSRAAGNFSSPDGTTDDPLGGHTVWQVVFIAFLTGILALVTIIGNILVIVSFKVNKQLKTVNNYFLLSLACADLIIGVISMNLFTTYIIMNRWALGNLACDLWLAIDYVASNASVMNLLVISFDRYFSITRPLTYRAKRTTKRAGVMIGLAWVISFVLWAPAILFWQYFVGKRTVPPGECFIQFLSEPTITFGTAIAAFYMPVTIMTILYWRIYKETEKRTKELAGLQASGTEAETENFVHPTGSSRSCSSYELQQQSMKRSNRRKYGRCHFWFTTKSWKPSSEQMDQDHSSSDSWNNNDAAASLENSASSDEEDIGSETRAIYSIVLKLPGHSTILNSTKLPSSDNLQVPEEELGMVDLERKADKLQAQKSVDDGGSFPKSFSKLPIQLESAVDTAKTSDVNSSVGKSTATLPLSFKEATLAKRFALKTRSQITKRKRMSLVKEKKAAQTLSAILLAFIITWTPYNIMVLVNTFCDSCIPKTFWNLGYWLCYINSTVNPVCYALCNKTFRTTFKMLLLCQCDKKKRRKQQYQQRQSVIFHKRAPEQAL

[4] = target: T2, Muscarinic acetylcholine receptor M1 (Homo sapiens, UniProt P11229); experiment: Antagonist activity at cloned muscarinic M1 receptor expressed in CHO cells assessed as acetylcholine-induced change in cytosolic calcium concentration by FLIPR assay; type: functional, cell-based; settings: read-out: pA2 (converted)
T2 sequence (P11229 whole entry): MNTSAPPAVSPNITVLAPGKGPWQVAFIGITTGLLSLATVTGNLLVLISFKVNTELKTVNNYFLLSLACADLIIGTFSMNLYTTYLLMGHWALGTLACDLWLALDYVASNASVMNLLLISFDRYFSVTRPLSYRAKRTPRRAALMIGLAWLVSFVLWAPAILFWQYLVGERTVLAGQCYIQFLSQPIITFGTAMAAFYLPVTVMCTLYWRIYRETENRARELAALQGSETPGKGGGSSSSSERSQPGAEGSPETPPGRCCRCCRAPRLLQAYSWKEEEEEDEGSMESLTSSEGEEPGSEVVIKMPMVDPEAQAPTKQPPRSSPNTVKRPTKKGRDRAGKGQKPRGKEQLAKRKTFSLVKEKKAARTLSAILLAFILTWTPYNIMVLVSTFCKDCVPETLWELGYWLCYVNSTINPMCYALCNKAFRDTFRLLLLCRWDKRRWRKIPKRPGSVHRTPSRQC

[5] = target: T3, Muscarinic acetylcholine receptor M2 (Homo sapiens, UniProt P08172); experiment: Antagonist activity at cloned muscarinic M2 receptor-Gqi5 chimeric protein expressed in CHO cells assessed as acetylcholine-induced change in cytosolic calcium concentration by FLIPR assay; type: functional, cell-based; settings: read-out: pA2 (converted)
T3 sequence (P08172 whole entry): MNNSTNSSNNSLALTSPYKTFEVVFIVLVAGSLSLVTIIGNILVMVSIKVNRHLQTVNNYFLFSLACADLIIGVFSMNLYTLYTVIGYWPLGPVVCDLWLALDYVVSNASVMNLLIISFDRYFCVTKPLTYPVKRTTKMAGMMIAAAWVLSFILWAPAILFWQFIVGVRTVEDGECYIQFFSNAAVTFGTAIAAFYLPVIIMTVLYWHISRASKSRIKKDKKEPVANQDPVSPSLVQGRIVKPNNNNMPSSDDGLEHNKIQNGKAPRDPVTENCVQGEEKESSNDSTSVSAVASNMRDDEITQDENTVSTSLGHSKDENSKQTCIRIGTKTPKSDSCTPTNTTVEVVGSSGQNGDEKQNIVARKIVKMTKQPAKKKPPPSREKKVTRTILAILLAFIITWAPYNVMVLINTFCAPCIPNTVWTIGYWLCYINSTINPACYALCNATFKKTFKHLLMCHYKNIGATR

Mus musculus [6] = experiment: Inhibition of methacholine-induced bronchoconstriction in intranasally single dosed conscious BALB/c mouse assessed by measuring enhanced pause at 5 ug after 15 mins by barometric plethysmography relative to control; type: functional
Mus musculus [7] = experiment: Inhibition of methacholine-induced bronchoconstriction in intranasally single dosed conscious BALB/c mouse assessed by measuring enhanced pause at 5 ug after 5 hrs by barometric plethysmography relative to control; type: functional
[8] = target: T1, Muscarinic acetylcholine receptor M3; experiment: Inhibition of human cloned muscarinic M3 receptor expressed in CHO cells by FLIPR assay; type: cell-based
Target sequence in this assay (P20309 whole entry): as the sequence (P20309 whole entry) above

[9] = target: T2, Muscarinic acetylcholine receptor M1; experiment: Inhibition of human cloned muscarinic M1 expressed in CHO cells by FLIPR assay; type: cell-based
[10] = target: T3, Muscarinic acetylcholine receptor M2; experiment: Inhibition of human cloned muscarinic M2 receptor-Gqi5 chimeric protein expressed in CHO cells by FLIPR assay; type: cell-based
Mus musculus [11] = experiment: Inhibition of methacholine-induced bronchoconstriction in intranasally single dosed conscious BALB/c mouse assessed by measuring enhanced pause at 5 ug after 24 hrs by barometric plethysmography relative to control; type: functional
Mus musculus [12] = experiment: Inhibition of methacholine-induced bronchoconstriction in intranasally single dosed conscious BALB/c mouse assessed by measuring enhanced pause at 5 ug after 48 hrs by barometric plethysmography relative to control; type: functional
Mus musculus [13] = experiment: Inhibition of methacholine-induced bronchoconstriction in intranasally single dosed conscious BALB/c mouse assessed by measuring enhanced pause at 5 ug after 72 hrs by barometric plethysmography relative to control; type: functional
[14] = target: T1, Muscarinic acetylcholine receptor M3; experiment: Displacement of [3H]N-methyl Scopolamine from human cloned muscarinic M3 receptor expressed in CHO cells by scintillation proximity assay; type: cell-based
Target sequence in this assay (P20309 whole entry): as the sequence (P20309 whole entry) above

[15] = Inhibition of alpha adrenergic receptor at 10 uM
[16] = Inhibition of opioid receptor at 10 uM
[17] = Inhibition of serotonin receptor at 10 uM
[18] = Permeability across artificial phospholipid membrane; type: ADME; settings: not told; read-out: permeability
[19] = Aqueous solubility of the compound; type: physicochemical; settings: buffer
Cytochrome P450 1A2 = target: T4, Cytochrome P450 1A2 (Homo sapiens, UniProt P05177); experiment: Inhibition of CYP1A2; type: ADME
T4 sequence (P05177 whole entry): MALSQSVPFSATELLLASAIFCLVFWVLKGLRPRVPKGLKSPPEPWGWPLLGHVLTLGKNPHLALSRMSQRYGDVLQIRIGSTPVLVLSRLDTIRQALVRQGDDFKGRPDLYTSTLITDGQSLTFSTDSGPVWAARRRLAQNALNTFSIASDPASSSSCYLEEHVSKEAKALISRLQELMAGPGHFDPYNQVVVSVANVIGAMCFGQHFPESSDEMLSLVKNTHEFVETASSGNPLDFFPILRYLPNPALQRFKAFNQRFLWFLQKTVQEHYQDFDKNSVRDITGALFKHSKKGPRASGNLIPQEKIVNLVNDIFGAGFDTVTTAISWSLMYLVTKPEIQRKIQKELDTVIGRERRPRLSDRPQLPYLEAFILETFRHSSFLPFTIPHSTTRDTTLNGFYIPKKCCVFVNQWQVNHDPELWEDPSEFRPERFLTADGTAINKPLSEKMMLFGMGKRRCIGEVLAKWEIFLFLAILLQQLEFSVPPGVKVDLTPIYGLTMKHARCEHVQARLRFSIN

Cytochrome P450 2C9 = Cytochrome P450 2C9 (Homo sapiens, UniProt P11712); experiment: Inhibition of CYP2C9; type: ADME
Cytochrome P450 2C19 = Cytochrome P450 2C19 (Homo sapiens, UniProt P33261); experiment: Inhibition of CYP2C19; type: ADME
Cytochrome P450 2D6 = Cytochrome P450 2D6 (Homo sapiens, UniProt P10635); experiment: Inhibition of CYP2D6; type: ADME
Cytochrome P450 3A4 = Cytochrome P450 3A4 (Homo sapiens, UniProt P08684); experiment: Inhibition of CYP3A4; type: ADME
[20] = target: Voltage-gated inwardly rectifying potassium channel KCNH2 (Homo sapiens, UniProt Q12809); experiment: Inhibition of human ERG
[21] = target: T1, Muscarinic acetylcholine receptor M3; settings: CHO
Target sequence in this assay (P20309 whole entry, looked up): as the sequence (P20309 whole entry) above
Description: Antagonist activity at cloned muscarinic M3 receptor expressed in CHO cells assessed as acetylcholine-induced change in cytosolic calcium concentration pretreated for 30 mins by FLIPR assay

Sequence of Muscarinic acetylcholine receptors; M2 & M3 (Homo sapiens) (P20309 whole entry, looked up, one chain of several): as the sequence (P20309 whole entry) above
Sequence of Muscarinic acetylcholine receptor M1 and M3 (Homo sapiens) (P20309 whole entry, looked up, one chain of several): as the sequence (P20309 whole entry) above
Sequence of Voltage-gated inwardly rectifying potassium channel KCNH2 (Q12809 whole entry): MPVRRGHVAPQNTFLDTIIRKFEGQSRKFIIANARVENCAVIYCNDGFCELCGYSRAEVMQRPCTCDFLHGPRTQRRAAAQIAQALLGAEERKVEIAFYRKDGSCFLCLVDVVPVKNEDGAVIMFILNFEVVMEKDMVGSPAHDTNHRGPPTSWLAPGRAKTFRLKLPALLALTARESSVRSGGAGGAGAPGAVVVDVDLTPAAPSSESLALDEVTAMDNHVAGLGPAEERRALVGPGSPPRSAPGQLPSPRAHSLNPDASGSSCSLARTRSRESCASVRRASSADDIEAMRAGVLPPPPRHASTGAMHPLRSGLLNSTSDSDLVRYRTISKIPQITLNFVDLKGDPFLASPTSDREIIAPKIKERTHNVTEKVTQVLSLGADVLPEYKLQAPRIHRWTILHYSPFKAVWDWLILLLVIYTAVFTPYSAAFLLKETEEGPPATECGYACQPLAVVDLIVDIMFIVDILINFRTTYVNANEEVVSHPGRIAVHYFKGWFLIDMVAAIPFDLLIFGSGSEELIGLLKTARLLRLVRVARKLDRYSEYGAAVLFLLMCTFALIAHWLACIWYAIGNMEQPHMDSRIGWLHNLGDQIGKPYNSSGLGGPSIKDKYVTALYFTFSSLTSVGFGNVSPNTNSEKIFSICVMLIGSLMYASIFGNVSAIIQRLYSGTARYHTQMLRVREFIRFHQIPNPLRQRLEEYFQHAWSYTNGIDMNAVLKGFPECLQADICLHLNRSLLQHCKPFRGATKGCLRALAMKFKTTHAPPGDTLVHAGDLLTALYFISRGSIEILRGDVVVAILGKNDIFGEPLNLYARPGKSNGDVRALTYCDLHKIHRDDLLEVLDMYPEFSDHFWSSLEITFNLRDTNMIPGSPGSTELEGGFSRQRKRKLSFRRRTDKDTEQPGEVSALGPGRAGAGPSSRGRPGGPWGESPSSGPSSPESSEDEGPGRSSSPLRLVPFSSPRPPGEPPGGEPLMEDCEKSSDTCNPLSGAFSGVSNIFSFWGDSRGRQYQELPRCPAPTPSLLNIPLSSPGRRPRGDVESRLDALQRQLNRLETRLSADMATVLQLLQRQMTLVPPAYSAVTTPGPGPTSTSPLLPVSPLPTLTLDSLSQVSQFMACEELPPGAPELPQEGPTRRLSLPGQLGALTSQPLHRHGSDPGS
Sequence of Cytochrome P450 3A4 (P08684 whole entry): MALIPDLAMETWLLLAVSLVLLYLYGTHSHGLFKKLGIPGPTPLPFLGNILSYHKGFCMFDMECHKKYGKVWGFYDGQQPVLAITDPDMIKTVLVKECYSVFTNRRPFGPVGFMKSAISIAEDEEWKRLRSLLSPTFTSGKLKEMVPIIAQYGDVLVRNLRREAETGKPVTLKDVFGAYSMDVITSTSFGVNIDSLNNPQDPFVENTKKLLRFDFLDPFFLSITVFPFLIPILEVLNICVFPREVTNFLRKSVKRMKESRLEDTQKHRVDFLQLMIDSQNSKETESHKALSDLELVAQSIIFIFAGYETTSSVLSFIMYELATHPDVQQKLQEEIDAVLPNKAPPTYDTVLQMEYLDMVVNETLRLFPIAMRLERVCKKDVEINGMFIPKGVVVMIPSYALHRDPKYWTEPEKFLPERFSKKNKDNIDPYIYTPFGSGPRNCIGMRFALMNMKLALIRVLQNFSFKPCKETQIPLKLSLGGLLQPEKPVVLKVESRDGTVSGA
Sequence of Cytochrome P450 2C19 (P33261 whole entry): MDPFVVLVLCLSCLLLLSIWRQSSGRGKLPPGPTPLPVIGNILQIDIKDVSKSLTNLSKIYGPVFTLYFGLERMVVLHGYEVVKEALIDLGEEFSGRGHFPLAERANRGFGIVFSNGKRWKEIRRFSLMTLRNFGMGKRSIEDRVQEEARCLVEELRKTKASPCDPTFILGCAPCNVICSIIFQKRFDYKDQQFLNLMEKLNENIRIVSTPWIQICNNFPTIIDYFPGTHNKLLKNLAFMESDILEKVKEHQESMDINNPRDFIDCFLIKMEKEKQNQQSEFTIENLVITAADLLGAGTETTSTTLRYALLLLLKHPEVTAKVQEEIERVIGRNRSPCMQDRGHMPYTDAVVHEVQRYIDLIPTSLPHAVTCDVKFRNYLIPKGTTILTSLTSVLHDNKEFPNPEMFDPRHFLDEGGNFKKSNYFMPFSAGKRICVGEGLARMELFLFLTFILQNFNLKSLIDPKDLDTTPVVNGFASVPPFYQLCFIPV
Sequence of Cytochrome P450 2C9 (P11712 whole entry): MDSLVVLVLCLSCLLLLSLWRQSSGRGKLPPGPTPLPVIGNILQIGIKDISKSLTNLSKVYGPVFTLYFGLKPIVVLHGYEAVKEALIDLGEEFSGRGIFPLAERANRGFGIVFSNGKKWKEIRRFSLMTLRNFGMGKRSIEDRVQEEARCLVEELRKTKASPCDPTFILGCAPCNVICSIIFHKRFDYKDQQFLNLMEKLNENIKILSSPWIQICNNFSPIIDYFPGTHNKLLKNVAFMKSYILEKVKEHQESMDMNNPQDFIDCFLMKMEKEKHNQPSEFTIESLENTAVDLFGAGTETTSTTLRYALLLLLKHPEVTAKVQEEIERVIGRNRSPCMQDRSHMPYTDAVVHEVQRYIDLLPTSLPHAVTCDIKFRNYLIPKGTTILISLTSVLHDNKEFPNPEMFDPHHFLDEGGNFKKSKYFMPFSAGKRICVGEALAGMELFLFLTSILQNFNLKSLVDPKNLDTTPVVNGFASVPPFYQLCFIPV
Sequence of Cytochrome P450 2D6 (P10635 whole entry): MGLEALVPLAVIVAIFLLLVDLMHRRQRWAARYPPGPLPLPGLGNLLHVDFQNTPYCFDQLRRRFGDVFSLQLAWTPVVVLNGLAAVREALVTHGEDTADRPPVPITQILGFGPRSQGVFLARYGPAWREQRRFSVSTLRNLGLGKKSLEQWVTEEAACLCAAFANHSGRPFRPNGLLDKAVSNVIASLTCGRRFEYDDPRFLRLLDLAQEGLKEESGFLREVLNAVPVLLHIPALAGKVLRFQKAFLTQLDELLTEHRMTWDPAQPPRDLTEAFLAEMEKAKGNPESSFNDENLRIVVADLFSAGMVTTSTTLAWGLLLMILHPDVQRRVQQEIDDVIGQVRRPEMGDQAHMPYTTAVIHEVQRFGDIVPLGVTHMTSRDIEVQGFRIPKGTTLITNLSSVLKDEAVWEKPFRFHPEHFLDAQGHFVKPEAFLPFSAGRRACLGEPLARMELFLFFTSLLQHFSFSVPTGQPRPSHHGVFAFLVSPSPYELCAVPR

SMILES: CC(=O)c1cccc(C(=O)NCc2ccc(F)c(-c3cccc(CN4CCN[C@@H](C)C4)c3)c2)c1
- Ratio [1]: 2000
- Ratio [2]: 50
- Kb [3]: 0.0501 nM
- Kb [4]: 2.51 nM
- Kb [5]: 100 nM
- Activity (Mus musculus [6]): Active
- inhibition (INH) (Mus musculus [7]): 45%

SMILES: C[C@H]1CN(Cc2cccc(-c3cc(CNC(=O)c4cccc(CN5CCNCC5)c4)ccc3F)c2)CCN1
- Ratio [1]: 400
- Ratio [2]: 6
- Kb [3]: 0.158 nM
- Kb [4]: 1 nM
- Kb [5]: 63.1 nM

SMILES: O=C(NCc1cccc(-c2cccc(CN3CCNCC3)c2)c1)c1ccc2c(c1)OCO2
- Ratio [1]: 100
- Ratio [2]: 5
- IC50 [8]: 31.6 nM
- IC50 [9]: 158 nM
- IC50 [10]: > 3160 nM

SMILES: C[C@H]1CN(Cc2cccc(-c3cc(CNC(=O)c4cccc(CC5CCNCC5)c4)ccc3F)c2)CCN1
- Ratio [1]: 500
- Ratio [2]: 20
- Kb [3]: 0.01 nM
- Kb [4]: 2.51 nM
- Kb [5]: 5.01 nM
- inhibition (INH) (Mus musculus [6]): 96%
- inhibition (INH) (Mus musculus [7]): 94%
- inhibition (INH) (Mus musculus [11]): 40%
- inhibition (INH) (Mus musculus [12]): 25%
- inhibition (INH) (Mus musculus [13]): 25%
- Ki [14]: 0.0316 nM
- inhibition [15]: 70%
- inhibition [16]: 70%
- inhibition [17]: 70%
- Papp [18]: < 0.3 ×10⁻⁶ cm/s
- solubility [19]: 200 µM (≈ 103 µg/mL)
- IC50 (Cytochrome P450 1A2): > 10000 nM
- IC50 (Cytochrome P450 2C9): > 10000 nM
- IC50 (Cytochrome P450 2C19): > 10000 nM
- IC50 (Cytochrome P450 2D6): > 10000 nM
- IC50 (Cytochrome P450 3A4): > 10000 nM
- IC50 [20]: 10000 nM
- pKb [21]: 10.5

SMILES: C[C@H]1CN(Cc2cccc(-c3cc(CNC(=O)c4cccc(CN5CC[N+](C)(C)CC5)c4)ccc3F)c2)CCN1.O=C([O-])C(F)(F)F
- Ratio [1]: 80
- Kb [4]: 2 nM
- Kb [5]: 12.6 nM
- inhibition (INH) (Mus musculus [6]): 95%
- inhibition (INH) (Mus musculus [7]): 85%
- Activity (Mus musculus [11]): inactive

SMILES: C[C@H]1CN(Cc2cccc(-c3cc(CNC(=O)c4cccc(C#N)c4)ccc3F)c2)CCN1
- Kb [3]: 0.251 nM
- Kb [4]: 7.94 nM
- Kb [5]: 316 nM

SMILES: CCC(=O)c1cccc(C(=O)NCc2ccc(F)c(-c3cccc(CN4CCN[C@@H](C)C4)c3)c2)c1
- Kb [3]: 0.0501 nM
- Kb [4]: 1 nM
- Kb [5]: 25.1 nM
- Activity (Mus musculus [6]): Active
- inhibition (INH) (Mus musculus [7]): 20%
